According to patent US8470844B2, “Imidazoacridinone derivative compounds and methods for their use” (Technion Research & Development Foundation Limited, priority 2008, dated 2013):
Residue numbers refer to the chain shown, from its start.

How the values were obtained:
[1] = biological target: T1, wild type R482 ABCG2 (Homo sapiens, UniProt Q9UNQ0); experiment: Flow cytometric accumulation in HEK293 transfectants, wild type R482 ABCG2; settings: HEK293 wild type R482 ABCG2, 0.1 μM TMR, ±5 μM FTC
T1 sequence (Q9UNQ0 1-655): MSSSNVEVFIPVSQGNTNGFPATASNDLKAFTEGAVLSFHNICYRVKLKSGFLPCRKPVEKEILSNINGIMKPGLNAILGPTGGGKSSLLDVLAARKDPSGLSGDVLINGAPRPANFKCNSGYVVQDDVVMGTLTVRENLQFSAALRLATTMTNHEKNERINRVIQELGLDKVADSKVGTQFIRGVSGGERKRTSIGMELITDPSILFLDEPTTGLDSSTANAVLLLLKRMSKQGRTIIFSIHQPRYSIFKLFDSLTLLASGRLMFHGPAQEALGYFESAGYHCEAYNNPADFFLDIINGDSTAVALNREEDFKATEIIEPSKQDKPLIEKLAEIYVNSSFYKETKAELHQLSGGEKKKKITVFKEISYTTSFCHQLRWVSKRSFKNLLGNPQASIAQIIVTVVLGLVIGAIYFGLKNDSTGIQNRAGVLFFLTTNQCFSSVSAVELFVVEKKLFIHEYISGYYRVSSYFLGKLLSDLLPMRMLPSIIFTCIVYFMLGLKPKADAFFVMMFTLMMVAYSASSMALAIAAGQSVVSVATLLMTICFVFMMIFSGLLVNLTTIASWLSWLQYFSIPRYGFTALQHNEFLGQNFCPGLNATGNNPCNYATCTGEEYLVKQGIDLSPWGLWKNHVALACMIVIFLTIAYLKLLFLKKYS
Method: (§1) For cytotoxicity and accumulation experiments, cells were grown in drug-free medium for at least one week prior to the experiments. Human embryonic kidney cells (HEK293) and their stable transfectants overexpressing the R482, G482 and T482 ABCG2 were grown in the above RPMI-1640 medium supplemented with 2 mg/ml G-418. Bram, E. E., et al., (2006) Cancer Chemother Pharmacol 58(6), 826-834.
(§2) IA derivative and tetramethylrosamine (TMR) accumulation in parental HEK293 and their HEK293/ABCG2 R/G/T482 transfectants were carried out as described herein with the a slight amendment of using a single IA concentration of 1 μM ±FTC (5 μM) for the selected as well as 0.1 μM for TMR accumulation. Robey, R. W., et al., (2003) Br J Cancer 89(10), 1971-1978. Cellular fluorescence was determined using a FACSCalibur (BD Bioscience, San Jose, Calif. USA) flow cytometer. FL1-H excitation of IAs was at 488 nm and emission was collected at 525 nm, whereas FL2-H excitation of TMR was at […] and emission was collected at 574 nm. Flow cytometric results are presented as means±SD of 3 independent experiments.
(§3) Bram, E. E., et al., (2006) Cancer Chemother Pharmacol 58(6), 826-834.

[2] = biological target: T2, mutant G482 ABCG2 (Homo sapiens, UniProt Q9UNQ0, R482G); experiment: Flow cytometric accumulation in HEK293 transfectants, mutant G482 ABCG2; settings: HEK293 mutant G482 ABCG2, 0.1 μM TMR, ±5 μM FTC
T2 sequence (Q9UNQ0 1-655 R482G): T1 sequence (Q9UNQ0 1-655) with R482G
Method: as §1, §2, §3

[3] = biological target: T3, mutant T482 ABCG2 (Homo sapiens, UniProt Q9UNQ0, R482T); experiment: Flow cytometric accumulation in HEK293 transfectants, mutant T482 ABCG2; settings: HEK293 mutant T482 ABCG2, 0.1 μM TMR, ±5 μM FTC
T3 sequence (Q9UNQ0 1-655 R482T): T1 sequence (Q9UNQ0 1-655) with R482T
Method: as §1, §2, §3

[4] = tested on: untransfected HEK293 cells; experiment: Flow cytometric accumulation in untransfected HEK293 cells; format: cell-based, Human; settings: ±5 μM FTC; for efflux (in words): 1 μM IA
Method: as §1, §2, §3

[5] = tested on: A549 cells; experiment: MTT cytotoxicity assay, parental A549 cells; format: cell-based, Human; settings: 96 hours exposure, mean of at least three experiments
Method: (§4) Tissue culture: Human non-small cell lung cancer A549 cells and T-cell leukemia CCRF-CEM cells were grown under monolayer conditions or up to a maximal density of 10^6 cells/ml (for CCRF-CEM cells) in RPMI-1640 medium (GIBCO) supplemented with 10% fetal calf serum, 2 mM glutamine, 100 μg/ml penicillin and 100 μg/ml streptomycin (Biological Industries, Beth-Haemek, Israel) in a humid atmosphere of 5% CO2. Drug resistant A549/K1.5 cells with ABCG2 overexpression were maintained under a continuous drug selection with 1.5 μM C-1305. Bram, E. E., et al., (2007) Biochem Pharmacol 74(1), 41-53.
(§5) Cytotoxicity and growth inhibition assays: The cytotoxic activity of the various IA antitumor agents was determined using the MTT assay. Poindessous, V., et al., (2003) Clin Cancer Res 9(7), 2817-2825.
(§6) Exponentially growing cells were seeded at 5×10^3 cells/well in 24-well plates (2 ml medium/well). Following an overnight incubation, cells were exposed to different drug concentrations for 96 hours. Cellular viability was determined by adding the tetrazolium salt MTT for 4 h at 37° C., followed by solubilization of the intracellular precipitated formazan in 1 ml DMSO and absorbance was determined by a microplate reader (ASYS Hitech GmbH, Austria). Drug concentrations required to inhibit cell growth by 50% (IC50) compared with untreated controls were determined from the curves of survival versus drug concentrations using the SlideWrite software (Advanced Graphics Software, Inc., Encinitas, Calif.). Resistance folds (RF) were calculated by dividing the IC50 value of the resistant cells by that of the parental cell line. Values presented are means of at least three independent experiments, each performed in duplicates.

[6] = tested on: A549/K1.5 cells; experiment: MTT cytotoxicity assay, ABCG2-overexpressing A549/K1.5 cells; format: cell-based, Human; settings: for IC50: ABCG2-overexpressing A549/K1.5 cells, 96 hours exposure, MTT; for RF (resistance fold): IC50 of A549/K1.5 cells divided by IC50 of parental A549 cells
Method: as §4, §5, §6
Quantitative evaluation of ABCG2 interaction with various IA derivatives: The extent of ABCG2-mediated resistance was expressed using the Resistance Fold (RF) parameter representing the ratio between the IC50 values of the resistant cells and parental cells. Likewise, ABCG2-dependent differential accumulation of IAs in ABCG2-overexpressing A549/K1.5 cells was compared using the ratio of IA accumulation in the presence or absence of the potent ABCG2 inhibitor FTC. This was termed the FTC-dependent Accumulation Fold (AF) and was determined for each IA at a constant IA concentration of 10 μM.

[7] = biological target: T4, ABCG2 (A549/K1.5 cells) (Homo sapiens, UniProt Q9UNQ0); experiment: Fluorescence microscopy of nuclear accumulation of IAs in A549/K1.5 cells; format: cell-based; settings: 10 μM IA, 1 hr
T4 construct: Drug resistant A549/K1.5 cells with ABCG2 overexpression were maintained under a continuous drug selection with 1.5 μM C-1305; endogenous in cells; host or cells: A549/K1.5 (C-1305-selected subline of human non-small cell lung cancer A549)
T4 sequence (Q9UNQ0 1-655): T1 sequence (Q9UNQ0 1-655)
Method: In immunofluorescence microscopy of plasma membrane targeting of ABCG2 and nuclear accumulation of IAs, cells (1×10^4/well) were seeded in 24-well plates (1 ml medium/well) and incubated for 2 days, following which some wells were supplemented with 10 μM IA-containing medium±5 μM FTC and incubated for 1 h at 37° C. Cells were then washed twice with ice-cold PBS containing 0.1% BSA and blocked for 10 min at 4° C. with PBS containing 5% BSA. Cells were then washed once with ice-cold PBS containing 0.1% BSA and incubated for 30 min at 4° C. with a Phycoerythrin-conjugated, affinity-purified 5D3 mouse anti-human ABCG2 monoclonal antibody (1:100; eBioscience). Unspecific fluorescence was determined using cells that were incubated only with a secondary Phycoerythrin (PE)-conjugated goat anti-mouse IgG (1:200; Jackson Immunoresearch Labs, West Grove, Pa.). Cells were then washed twice and subjected to fluorescence microscopy using a DMIRE2 fluorescence microscope equipped with a DC300FX camera (Leica Microsystems, Wetzlar, Germany).
In order to exclude the possibility that differential subcellular accumulation of IA derivatives is the basis of the observed difference in cytotoxicity and cellular fluorescence, A549/K1.5 cells were incubated with 10 μM of selected IA derivatives from both group A and B in the presence or absence of FTC and subjected to fluorescence microscopy.

SMILES | AF (FTC inducible accumulation fold) [1] | AF (FTC inducible accumulation fold) [2] | AF (FTC inducible accumulation fold) [3] | AF (FTC inducible accumulation fold) ([4]; 0.1 μM TMR) [fold] | IC50 [5] [µM] | IC50 [6] [µM] | RF (resistance fold) [6] | resistance of A549/K1.5 cells ([6]; versus parental A549 cells) [fold] | resistance of A549/K1.5 cells (in words) ([6]; versus parental A549 cells) | efflux (in words) [4] | intracellular accumulation (fluorescence microscopy) ([7]; absence of FTC) | nuclear accumulation (fluorescence microscopy) ([7]; presence of 5 μM FTC)
CN(C)c1ccc2c(-c3ccc(CCl)cc3)c3ccc(=[N+](C)C)cc-3oc2c1 [TMR, tetramethylrosamine] | 1.4 | marked AF | marked AF | 0.8 | – | – | – | – | – | – | – | –
Cc1nc2ccc(NCCN(C)C)c3c(=O)c4cc(O)ccc4n1c23.Cl [C-1309] | – | – | – | – | 0.05 ± 0.007 | 3.22 ± 0.18 | 60.80 | 61 | prominent resistance | not from untransfected HEK293 cells | – | –
CCN(CC)CCNc1ccc2nc(C)n3c4ccc(O)cc4c(=O)c1c23.Cl [C-1310] | – | – | – | – | 0.06 ± 0.008 | 1.22 ± 0.07 | 20.30 | – | prominent resistance | not from untransfected HEK293 cells | no apparent intracellular accumulation | marked restoration of nuclear accumulation
